Results reported in US20130289070A1, “Use of Levocabastine for Modulating Generation of Pro-Inflammatory Cytokines” (Bausch & Lomb Incorporated, priority 2007, published 2013).

Tested on: EoL-1 (human eosinophilic leukaemia cell line) cells
Assay: TNF-α-induced cytokine release, differentiated and non-differentiated EoL-1 cells
Type: cell-based
Method: EoL-1 (human eosinophilic leukaemia cell line) cells (Saito et al., 1985; Mayumi, 1992) were maintained in RPMI-1640 medium with L-glutamine supplemented with 10% (v/v) FBS at 37° C. in a humidified atmosphere with 5% CO2. Where indicated, 24 h before the experiment 25 ng/mL PMA ((phorbol 12-myristate 13-acetate, purchased from Sigma Aldrich) was added to the medium to induce eosinophil granulation and differentiation (Ohtsu et al., 1993; Zimmermann et al., 2000). Half-million cells were aliquoted per point in a 24 well plate; each experiment was performed in triplicate and carried out in parallel with eosinophils differentiated and non differentiated with PMA (25 ng/mL, 24 h). Cells were suspended in low serum medium (RPMI-1640, 0.1% (v/v) FBS). TNF-α was used to induce cytokine secretion as previously described by Steube et al. (2000), and the net release was obtained by comparison to the basal (non-TNF-α treated). In the first experiment we evaluated the concentration and time relation between TNF-α stimulation and cytokine release. […] An aliquot of 150 μL of supernate was collected for cytokines' analysis. […] Differentiated and non-differentiated EoL-1 cells were exposed from 0.1 to 2.3 mM levocabastine ([…]Levocabastine 0.05% solution eye drops containing cyclodextrins, without benzalkonium chloride), and aliquots of the supernates were collected after 12 and 24 h. The content of cytokines at time zero was estimated by treating the cells with 400 nM calcimycin (A-23187), which is a cytolytic agent that frees all the mediators from the cytoplasmic compartment. In addition, for each experiment we tested the effect of the vehicle, which was added to the wells in a concentration equal to the maximum amount used for drug dilution. Samples (supernates 12 and 24 h) in triplicate were analyzed using Luminex 200™ (Luminex, Austin, Tex.) and Beadview software v1.0 (Upstate Cell Signaling Solutions, Temecula, Calif.). All data are presented as mean±SEM for the indicated number of experiments. Statistical significance was determined by Newman-Keuls test after ANOVA using GraphPad Prism (version 3.0; GraphPad Software Inc., San Diego, Calif., USA).

[1] = TNF-α challenge, text summary of Tables T-1, T-2
[2] = overall conclusion, in a concentration-dependent manner
[3] = overall conclusion, in a concentration-dependent way

C[C@@H]1CN([C@H]2CC[C@](C#N)(c3ccc(F)cc3)CC2)CC[C@]1(C(=O)O)c1ccccc1 [Levocabastine, levocabastine]
release of IL-12p40 induced by TNF-α (2 mM, TNF-α 10 ng, 24 h, without PMA or differentiated with it, not influenced by VCAM-1 or fibronectin (FIG. 10)): effective in reducing the release
release of VEGF induced by TNF-α (2 mM, TNF-α 10 ng, 24 h, without PMA or differentiated with it, not influenced by VCAM-1 or fibronectin (FIG. 14)): effective in reducing the release
release of IL-12 P40 induced by TNF-α (2 mM, TNF-α 5, 10 and 20 ng, 12 h, without PMA or differentiated with it (FIG. 5)): capable of reducing the release
release of VEGF induced by TNF-α (2 mM, TNF-α 5, 10 and 20 ng, 24 h, without PMA or differentiated with it (FIG. 6)): capable of reducing the release
release of VEGF induced by TNF-α (2 mM, TNF-α 5, 10 and 20 ng, 24 h, without PMA or differentiated with it (FIG. 8)): capable of reducing the release
release of IP-10 induced by TNF-α (0.1, 0.5 and 1.0 mM, 12 h, without PMA or differentiated with it (FIG. 1)): capable to prevent the release
release of VEGF induced by TNF-α (0.1, 0.5 and 1.0 mM, 24 h, without PMA or differentiated with it (FIG. 4)): capable to prevent the release
VEGF release (FIG. 14) (PMA differentiated and indifferentiated EoL-1 cells, after TNF-α challenge): able to reduce
release of IL-1β [1]: significantly reduce
release of IP-10 [1]: significantly reduce
TNF-α-induced release of IL-8 (overall conclusion): statistical significant reduction
TNF-α-induced release of IL-12p40 (overall conclusion): statistical significant reduction
TNF-α-induced release of VEGF (overall conclusion): statistical significant reduction
cytokine release, general effect (overall conclusion, following TNF-α stimulation): concentration-related reduction
release of IL1-ra [2]: significantly reduced
release of IL-1β [2]: significantly reduced
release of IP-10 [2]: significantly reduced
secretion of MIP-1α [3]: increasing the secretion
secretion of RANTES [3]: increasing the secretion
